The target of assay [1] is T1, BCAT2 (Homo sapiens, UniProt O15382).
T1 sequence (O15382 28-392): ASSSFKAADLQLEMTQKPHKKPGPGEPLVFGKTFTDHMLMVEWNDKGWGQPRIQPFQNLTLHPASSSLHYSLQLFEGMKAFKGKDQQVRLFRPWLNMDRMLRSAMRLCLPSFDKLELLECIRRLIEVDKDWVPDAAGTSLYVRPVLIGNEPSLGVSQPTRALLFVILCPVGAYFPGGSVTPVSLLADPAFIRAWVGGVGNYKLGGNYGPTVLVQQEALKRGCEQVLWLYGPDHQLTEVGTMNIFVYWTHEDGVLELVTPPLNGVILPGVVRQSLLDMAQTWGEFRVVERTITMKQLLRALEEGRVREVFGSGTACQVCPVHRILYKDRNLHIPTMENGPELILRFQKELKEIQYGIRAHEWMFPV
Kind of assay: BCAT2 in vitro enzyme inhibition assay (resazurin/diaphorase-coupled fluorescence). Format: biochemical. The arrangement: key to BCAT2 Enzyme Inhibition: A: less than or equal to 0.100 μM; B: greater than 0.100 and less than or equal to 0.500 μM; C: greater than 0.500 and less than or equal to 1.000 μM; d: greater than 1.000 μM; E: no fit. The settings on record: average where tested multiple times. Here is the method: BCAT2 In Vitro Enzyme Inhibition Assay
1.67× hBCAT2 Enzyme Mix: 0.33 μg/mL hBCAT2, 1× Buffer
2.5× Substrate Mix: 460 μM L-leucine, 420 μM α-KetoGlutarate, 10 U/mL glutamate dehydrogenase, 10 mM NAD, 30 μg/mL diaphorase, 20 μm Resazurin
BCAT2 enzyme stock solution was diluted to prepare a 1.67× hBCAT2 Enzyme Mix. 1 μL of test compound was first added to the reaction wells followed by 30 μL of 1.67× hBCAT2 Enzyme Mix and incubated at room temperature (25° C.) for one hour. Meanwhile the Substrate Mix was prepared. The reaction was initiated by the addition of 20 μL of the 2.5× Substrate Mix, bringing the final reaction mix of all components to 1×. Reactions were quenched after one hour by the addition of 25 μL of 6% SDS and reaction progress was measured via fluorescence read (Ex 540/Em 590).
Test Compound Preparation:
Test compounds were prepared at 50× final concentration in DMSO, 1 to 3 dilutions were made for 10 points. The compounds were added to the assay as a 1 to 50 dilution (1 μL in 50 μL) to yield a top assay final concentration of 100 μM, decreasing 3-fold for 10 points. Each compound dilution series test also included an assay max (1 μL DMSO Added in lieu of compound, Full Reaction Components Included) and Min (1 μL DMSO Added in lieu of compound, 30 μl of 1.67× hBCAT2 Enzyme Mix replated by 30 μL of 1× Buffer). All tests were performed in technical duplicate.
Where a compound was tested multiple times, the average value of the tests is reported.
On the technique in general: The colour change of resazurin is a common sign of viable cells or microbes.

Assay [2] concerns the target T1, BCAT2. Kind of assay: BCAT2 in vitro cell inhibition using engineered A549 cells (KMV cell assay, 13C6-KMV by LC-MS/MS). The format is cell-based. Details: The result was an engineered A549 cell line that expressed endogenous BCAT2; endogenous in cells; host or cells: A549 cells with MUT and BCAT1 knocked out by CRISPR/CAS9; key to BCAT2 Cell Inhibition: A: less than or equal to 0.100 μM; B: greater than 0.100 and less than or equal to 0.500 μM; C: greater than 0.500 and less than or equal to 1.000 μM; d: greater than 1.000 μM; E: no fit. As to conditions: average where tested multiple times.

Where “and” joins values, the source holds several entries; their conditions need not be identical. Equal values may be shown once.

This note sets out measurements from patent US20260159512A1, “BCAT2 INHIBITORS” (AGIOS PHARMACEUTICALS, INC., priority 2021, published 2026).

With `O=C(N[C@H]1CCC[C@@H](n2c(-c3ccccc3F)nc3cnc(-c4ncnn4C(F)F)cc32)C1)c1ncc(Cl)s1` [Example 376, 5-chloro-N-((1S,3R)-3-(6-(1-(difluoromethyl)-1H-1,2,4-triazol-5-yl)-2-(2-fluorophenyl)-1H-imidazo[4,5-c]pyridin-1-yl)cyclohexyl)thiazole-2-carboxamide], at BCAT2 [1], the IC50 (commonly the point on the concentration scale where inhibition reaches its midpoint) is 0.5 to 1 µM. Also, the “BCAT2 Cell Inhibition” value on BCAT2 [2] is “E”.

`CC(C)Cc1nc2cnc(-n3nccn3)cc2n1[C@@H]1COC[C@H](NC(=O)c2ccc(Cl)s2)C1` (single isomer, unassigned) [Example 140] came in with an IC50 against BCAT2 [1] of more than 1 µM. For the same compound, the “BCAT2 Cell Inhibition” value at BCAT2 [2] was “E”.

The compound `CO[C@@H]1C[C@@H](NC(=O)c2ncc(Cl)s2)C[C@@H](n2c(CC(C)C)nc3cnc(-c4ncccn4)cc32)C1` [Example 436, 5-chloro-N-((1S,3R,5R)-3-(2-isobutyl-6-(pyrimidin-2-yl)-1H-imidazo[4,5-c]pyridin-1-yl)-5-methoxycyclohexyl)thiazole-2-carboxamide] yielded an IC50 against BCAT2 [1] of 0.5 to 1 µM. The “BCAT2 Cell Inhibition” value on BCAT2 [2] is on record as “E”.

The compound `COC(=O)N[C@@H](c1nc2cnc(-c3nc[nH]n3)cc2n1[C@@H]1CCC[C@H](NC(=O)c2ncc(Cl)s2)C1)C(C)C` [Example 371, methyl ((R)-1-(1-((1R,3S)-3-(5-chlorothiazole-2-carboxamido)cyclohexyl)-6-(1H-1,2,4-triazol-3-yl)-1H-imidazo[4,5-c]pyridin-2-yl)-2-methylpropyl)carbamate] showed an IC50 on BCAT2 [1] of more than 1 µM. At BCAT2 [2], the “BCAT2 Cell Inhibition” value is “E”.

Turning to `O=C(N[C@H]1CCC[C@@H](n2c(-c3ccccc3F)nc3cnc(C4CCCO4)cc32)C1)c1ncc(Cl)s1` (single isomer, unassigned) [Example 200], the IC50 on BCAT2 [1] is 0.5 to 1 µM. The “BCAT2 Cell Inhibition” value on BCAT2 [2] is given as “E”.

Turning to `CO[C@@H]1C[C@@H](NC(=O)c2ncc(Cl)s2)C[C@@H](n2c(-c3ncccc3F)nc3cnc(-c4nc[nH]n4)cc32)C1` (stereo in doubt) [Example 444, 5-chloro-N-((1S,3R,5R)-3-(2-(3-fluoropyridin-2-yl)-6-(1H-1,2,4-triazol-3-yl)-1H-imidazo[4,5-c]pyridin-1-yl)-5-methoxycyclohexyl)thiazole-2-carboxamide], the IC50 on BCAT2 [1] and at BCAT2 [2] was not above 0.1 µM throughout.

With `CC(C)Cc1nc2cnc(-n3cncn3)cc2n1[C@@H]1CCC[C@H](NC(=O)c2ncc(Cl)s2)C1` [Example 323, 5-chloro-N-((1S,3R)-3-(2-isobutyl-6-(1H-1,2,4-triazol-1-yl)-1H-imidazo[4,5-c]pyridin-1-yl)cyclohexyl)thiazole-2-carboxamide], the results for the half-inhibitory concentration (IC50) against BCAT2 [1] and at BCAT2 [2] were 0.1 to 0.5 µM and more than 1 µM, respectively.

On to `CC(C)Cc1nc2cnc(-c3nc[nH]n3)cc2n1[C@H]1CCC[C@@H](NC(=O)c2ncc(Cl)s2)[C@@H]1O` [Example 251, 5-chloro-N-((1R,2S,3S)-2-hydroxy-3-(2-isobutyl-6-(1H-1,2,4-triazol-3-yl)-1H-imidazo[4,5-c]pyridin-1-yl)cyclohexyl)thiazole-2-carboxamide], for which the IC50 against BCAT2 [1] is 0.1 to 0.5 µM; at BCAT2 [2] it was more than 1 µM.

Consider `CC(C)Cc1nc2cnc(-c3ccccc3CC#N)cc2n1[C@@H]1CCC[C@H](NC(=O)c2ncc(Cl)s2)C1` [Example 333, 5-chloro-N-((1S,3R)-3-(6-(2-(cyanomethyl)phenyl)-2-isobutyl-1H-imidazo[4,5-c]pyridin-1-yl)cyclohexyl)thiazole-2-carboxamide], for which the IC50 against BCAT2 [1] was more than 1 µM. Besides, the “BCAT2 Cell Inhibition” value on BCAT2 [2] is on record as “E”.

In the case of `O=C(N[C@@H]1CCCC[C@H](n2c(-c3ccccc3F)nc3cnc(-c4nc[nH]n4)cc32)[C@H]1O)c1ccc(Cl)s1` [Example 404, 5-chloro-N-((1R,2S,3S)-3-(2-(2-fluorophenyl)-6-(1H-1,2,4-triazol-3-yl)-1H-imidazo[4,5-c]pyridin-1-yl)-2-hydroxycycloheptyl)thiophene-2-carboxamide], the IC50 is 0.1 to 0.5 µM against BCAT2 [1] and 0.5 to 1 µM against BCAT2 [2].

For the compound `Cc1coc(-c2cc3c(cn2)nc(-c2ccccc2F)n3[C@H]2CCC[C@@H](NC(=O)c3ncc(Cl)s3)[C@@H]2O)n1` [Example 237, 5-chloro-N-((1R,2S,3S)-3-(2-(2-fluorophenyl)-6-(4-methyloxazol-2-yl)-1H-imidazo[4,5-c]pyridin-1-yl)-2-hydroxycyclohexyl)thiazole-2-carboxamide], the IC50 against BCAT2 [1] was 0.1 to 0.5 µM; against BCAT2 [2], 0.5 to 1 µM.

For the compound `CO[C@@H]1C[C@H](NC(=O)c2ncc(Cl)s2)C[C@H](n2c(-c3ccccc3F)nc3cnc(-c4nc[nH]n4)cc32)C1` (stereo in doubt) [Example 419, 5-chloro-N-((1R,3S,5R)-3-(2-(2-fluorophenyl)-6-(1H-1,2,4-triazol-3-yl)-1H-imidazo[4,5-c]pyridin-1-yl)-5-methoxycyclohexyl)thiazole-2-carboxamide], the IC50 on BCAT2 [1] was not above 0.1 µM; against BCAT2 [2] it was ≤ 0.1 µM and 0.1 to 0.5 µM.

On BCAT2 [1], `CC(C)Cc1nc2cnc(N3CCC[C@H]3C(N)=O)cc2n1[C@@H]1CCC[C@H](NC(=O)c2ncc(Cl)s2)C1` [Example 307, N-((1S,3R)-3-(6-((S)-2-carbamoylpyrrolidin-1-yl)-2-isobutyl-1H-imidazo[4,5-c]pyridin-1-yl)cyclohexyl)-5-chlorothiazole-2-carboxamide] returned an IC50 of more than 1 µM. Further, the “BCAT2 Cell Inhibition” value at BCAT2 [2] was “E”.

Turning to `O=C(N[C@@H]1C[C@@H](O)C[C@H](n2c(-c3ccccc3F)nc3cnc(-c4nc[nH]n4)cc32)C1)c1ccc(Cl)s1` [Example 255, 5-chloro-N-((1S,3R,5R)-3-(2-(2-fluorophenyl)-6-(1H-1,2,4-triazol-3-yl)-1H-imidazo[4,5-c]pyridin-1-yl)-5-hydroxycyclohexyl)thiophene-2-carboxamide], the results for the IC50 at BCAT2 [1] and at BCAT2 [2] were not above 0.1 µM and 0.1 to 0.5 µM, respectively.

Take `O=C(N[C@H]1CCC[C@@H](n2c(-c3ccccc3F)nc3ccc(-c4ncco4)cc32)[C@@H]1O)c1ncc(Cl)s1` [Example 465, 5-chloro-N-((1S,2R,3R)-3-(2-(2-fluorophenyl)-6-(oxazol-2-yl)-1H-benzo[d]imidazol-1-yl)-2-hydroxycyclohexyl)thiazole-2-carboxamide]: the IC50 at BCAT2 [1] and on BCAT2 [2] was not above 0.1 µM throughout.

On BCAT2 [1], `COc1cc2c(cn1)nc(-c1ccccc1F)n2[C@H]1C[C@H](O)C[C@@H](NC(=O)c2ncc(Cl)s2)C1` [Example 277, 5-chloro-N-((1S,3R,5R)-3-(2-(2-fluorophenyl)-6-methoxy-1H-imidazo[4,5-c]pyridin-1-yl)-5-hydroxycyclohexyl)thiazole-2-carboxamide] had a half-maximal inhibitory concentration (IC50) of more than 1 µM. Besides, the “BCAT2 Cell Inhibition” value at BCAT2 [2] is given as “E”.

As for `CCn1c(CO)nn(-c2cc3c(cn2)nc(CC(C)C)n3[C@@H]2CCC[C@H](NC(=O)c3ccc(Cl)s3)C2)c1=O` [Example 373, 5-chloro-N-((1S,3R)-3-(6-(4-ethyl-3-(hydroxymethyl)-5-oxo-4,5-dihydro-1H-1,2,4-triazol-1-yl)-2-isobutyl-1H-imidazo[4,5-c]pyridin-1-yl)cyclohexyl)thiophene-2-carboxamide], the results for the IC50 against BCAT2 [1] and against BCAT2 [2] were not above 0.1 µM and more than 1 µM, respectively.

With `CO[C@H]1[C@@H](NC(=O)c2ncc(Cl)s2)CCC[C@H]1n1c(-c2ccccc2F)nc2cnc(-c3nc[nH]n3)cc21` [Example 433, 5-chloro-N-((1S,2S,3R)-3-(2-(2-fluorophenyl)-6-(1H-1,2,4-triazol-3-yl)-1H-imidazo[4,5-c]pyridin-1-yl)-2-methoxycyclohexyl)thiazole-2-carboxamide], the “BCAT2 Enzyme Inhibition” value on BCAT2 [1] is given as “E”. Further, the “BCAT2 Cell Inhibition” value at BCAT2 [2] is listed as “E”.

As to `Nc1cc2c(cn1)nc(-c1ccccc1F)n2[C@H]1C[C@H](O)C[C@@H](NC(=O)c2ncc(Cl)s2)C1` [Example 269, N-((1S,3R,5R)-3-(6-amino-2-(2-fluorophenyl)-1H-imidazo[4,5-c]pyridin-1-yl)-5-hydroxycyclohexyl)-5-chlorothiazole-2-carboxamide], the IC50 against BCAT2 [1] and on BCAT2 [2] was more than 1 µM throughout.
